We go through one compound from patent US9260466B2, “Use of a flavanol glycoside for suppressing activation of stellate cells” (Hong Kong Baptist University, priority 2013, dated 2016).

The structures appear in SMILES notation. Converted amounts (≈) assume the structure as drawn.

Holding throughout (format): cell-based, rat
The test system of data set [1] is LTC-14 cells. The data set is described as follows: MTT cell proliferation assay. To be noted: Eruberin A in the range of 0 to 20 μg/mL; results not shown.
The test system of data set [2] is NF-κB. The data set is described as follows: Western blotting of nuclear translocation of NF-κB in LTC-14 cells. To be noted: compared to the TGF-β-treated control, FIG. 5. How it is done: (§1) LTC-14 cells were cultured at 37° C. under a humidified condition of 95% air and 5% CO2 in Iscove's Modified Dulbecco's Medium (IMDM) supplemented with 10% fetal bovine serum (FBS). Cells used in all the experiment were among passages 9 to 25. LTC-14 cells were seeded at a density of 1×10^5/well in a 12-well plate, and incubated with recombinant TGF-β at 5 ng/mL and Eruberin A at 0, 0.5, 1, 5, 10 and 20 μg/mL in serum-free IMDM for 24 hours. Cells were then harvested for mRNA and protein extraction or subjected to Sirius Red/Fast Green staining or immunofluorescent staining.
(§2) Cytoplasmic and nuclear protein fractions of the LTC-14 cells were extracted using specific lysis buffers containing protease inhibitors. Cell lysates were loaded and separated by SDS-polyacrylamide gel electrophoresis. After wet electroblotting, proteins were transferred onto PVDF membranes (Bio-Rad), blocked with 5% non-fat milk, probed with antibodies and visualized by utilization of an ECL kit (GE Healthcare).
(Immunoblotting shows a protein as a band on a membrane.)

Data set [3] concerns LTC-14 cells. Description: Immunofluorescent staining of α-SMA in TGF-β-stimulated LTC-14 cells. To be noted: TGF-β 5 ng/mL, FIG. 1. How it is done: as §1
For immunofluorescent staining of α-SMA, LTC-14 cells were seeded at a density of 1×10^5 onto the poly-L-lysine-coated cover slips in a 24-well plate, incubated with TGF-β at 5 ng/mL and Eruberin A at 0, 0.5, 1, 5, 10 and 20 μg/mL in serum-free IMDM for 24 hours. Cells were then fixed, blocked with 3% bovine serum albumin (BSA), probed with antibodies and mounted with fluorescence mounting medium containing 4′,6-diamidino-2-phenylindole (DAPI). Images were captured using the Nikon microscope and analyzed by the SPOT advanced software.

For data set [4], the system named is LTC-14 cells. Description: Sirius Red/Fast Green collagen staining of LTC-14 cells. Conditions: TGF-β 5 ng/mL, Eruberin A 10 μg/mL, p<0.05 vs TGF-β alone, FIG. 3. How it is done: as §1
Amounts of collagen and non-collagenous proteins in LTC-14 cells were measured using the Sirius Red/Fast Green collagen staining kit (Chondrex Inc.) according to the manufacturer's instruction.

For data set [5], the system named is LTC-14 cells. Description: Western blotting of α-SMA and FN1 proteins in TGF-β-stimulated LTC-14 cells. To be noted: TGF-β 5 ng/mL, Eruberin A 0.5-20 μg/mL, 24 hours, serum-free medium, FIG. 2. How it is done:
as §1, §2

For data set [6], the system named is LTC-14 cells. Description: Real-time quantitative PCR of fibrotic mediator mRNA in TGF-β-stimulated LTC-14 cells. To be noted: TGF-β 5 ng/mL, 24 hours. How it is done:
as §1
mRNA samples from LTC-14 cells were extracted using Trizol reagent and subjected to a reverse transcription for cDNA synthesis. The synthesized cDNA was applied to amplifications with rat-specific primers for Tgf-β, Acta2, Col I-α1 and Fn1 in the ABI ViiA 7 real-time PCR system (Applied Biosystems) using 2×SYBR Green PCR Master Mix (Applied Biosystems). The Ct value of gene of interest was normalized to the endogenous reference Gapdh and presented as 2^−ΔΔCt using the comparative Ct method.

Where [7] appears, read: Eruberin A 0.5-20 μg/mL, FIG. 4.

As for `COc1ccc(C2C[C@@H]3OC4C(Oc5c(C)c(O)c(C)c(c53)O2)OC(CO)C(O)C4O)cc1` (stereo partly drawn) [Eruberin A], in data set [1], the “cytotoxicity (MTT cell proliferation assay)” value is given as “no notable cytotoxicity”. Also, the “nuclear translocation of NF-κB” value in data set [2] was “significantly decreased”. Also, in data set [3] (24 hours), the “TGF-β-stimulated α-SMA expression (immunofluorescence)” value was “significantly attenuated”. For the same compound, the “immunoreactivities of α-SMA” value in data set [3] (Eruberin A at 10 μg/mL) is “sufficiently suppress”. Besides, in data set [4], the “production of collagen (ratio of Sirius Red-stained collagenous to Fast Green-stained non-collagenous proteins)” value is “notably suppressed”. For the same compound, in data set [5], the “TGF-β-provoked elevation of FN1 protein” value is reported as “effectively attenuated” and the “TGF-β-provoked elevation of α-SMA protein” value is “effectively attenuated”. Also, in data set [6] (Rattus norvegicus, read-out: IC50 based on suppressive effects on the mRNA expression of α-SMA), the IC50 (commonly the concentration that gives 50% inhibition) was approximately 10 µg/mL (≈ 21.7 µM). Moreover, in data set [6] (setting [7]), the “TGF-β-elevated mRNA expression level of Acta2” value is “significantly and dose-dependently suppressed”; the “TGF-β-elevated mRNA expression level of Col I-α1” value is “significantly and dose-dependently suppressed”; the “TGF-β-elevated mRNA expression level of Fn1” value was “significantly and dose-dependently suppressed”; the “TGF-β-elevated mRNA expression level of Tgf-” value is “significantly and dose-dependently suppressed”.
